This is an account of results in patent publication US10167300B2, “Metalloenzyme inhibitor compounds as fungicides” (priority 2014, dated 2019).

Common to all, as to type: in vivo, Mycosphaerella graminicola on wheat plants (variety Yuma)
Experiment [1] in a line: Type B (low volume, EC formulation, track sprayer 200 L/ha) assay, leaf blotch of wheat, SEPTTR field isolate (FI SEPTTR). Particulars: Zymoseptoria tritici, 72 h, field isolate, low volume EC, 100 g/ha, wheat (Yuma). A digest of the protocol: (§1)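 Wheat seedlings (Yuma, first leaf emerged) sprayed with acetone/Triton X-100 solutions (Type A) or 10% EC diluted in 0.1% Trycol at 200 L/ha (Type B), inoculated before or after spraying. Inoculated plants held 3 days at 20 °C, 100% RH, then greenhouse; % disease control from severity versus untreated plants.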

In experiment [2] the test system is Mycosphaerella graminicola; Anamorph: Septoria tritici; Bayer Code SEPTTR (standard laboratory isolate, SI SEPTTR). The experiment is described as follows: Type A (high volume) assay, leaf blotch of wheat, standard laboratory SEPTTR isolate (SI SEPTTR). The conditions noted are these: standard laboratory isolate, high volume, 50 ppm, wheat (Yuma); for pest or weed control at 50 ppm: Zymoseptoria tritici. A digest of the protocol: as §1

The test system is the same in experiment [3]. Nature of the experiment: Type B (low volume, EC formulation, track sprayer 200 L/ha) assay, leaf blotch of wheat, standard laboratory SEPTTR isolate (SI SEPTTR). The conditions noted are these: Zymoseptoria tritici, 72 h, standard laboratory isolate, low volume EC, 100 g/ha, wheat (Yuma). The procedure:
Example A: Evaluation of Fungicidal Activity: Leaf Blotch of Wheat (Mycosphaerella graminicola; Anamorph: Septoria tritici; Bayer Code SEPTTR)
For Type A assays, technical grades of the experimental fungicides in Table 4 below were dissolved in acetone, and then mixed with nine volumes of water containing 110 ppm Triton X-100. The fungicide solutions were applied onto wheat seedlings using an automated booth sprayer. For Type B assays, emulsifiable concentrate (EC) formulations of technical grades of the experimental fungicides in Table 4 below were prepared at 10% (w/v), and then mixed with 150 volumes of 0.1% Trycol 5941. These solutions were applied onto wheat seedlings using an automated track sprayer at 200 L/ha. All sprayed plants were allowed to air dry prior to further handling.
Wheat plants (variety Yuma) were grown from seed in a greenhouse in 50% mineral soil/50% soil-less Metro mix until the first leaf was fully emerged, with 7-10 seedlings per pot. Prior to or after application of experimental fungicides, plants were inoculated either with spores of a standard laboratory SEPTTR isolate (SI SEPTTR) or with spores from a SEPTTR field isolate collected from Wellsbourne, England in 2012 (FI SEPTTR). After inoculation the plants were kept for 3 days at 20° C. in 100% relative humidity (one day in a dark dew chamber followed by two days in a lighted dew chamber). Plants were then transferred to a 20° C. greenhouse for disease development. When disease symptoms were fully expressed on untreated plants, infection levels on treated plants were assessed on a scale of 0 to 100 percent disease severity. Percent disease control was calculated using the ratio of disease severity on treated plants relative to untreated plants.

[4] abbreviates: 3 Day Curative, read-out: Disease Control, FI SEPTTR Type B Assay (100 g/ha) 3 DC.
Where [5] appears, read: 3 Day Protectant, read-out: Disease Control, FI SEPTTR Type B Assay (100 g/ha) 3 DP.
Where [6] appears, read: 24 h, 1 Day Protectant, read-out: Disease Control, SI SEPTTR Type A Assay (50 ppm) 1 DP.
Where [7] appears, read: 72 h, 3 Day Curative, read-out: Disease Control, SI SEPTTR Type A Assay (50 ppm) 3 DC.
Setting [8] is: 3 Day Curative, read-out: Disease Control, SI SEPTTR Type B Assay (100 g/ha) 3 DC.
[9] abbreviates: 3 Day Protectant, read-out: Disease Control, SI SEPTTR Type B Assay (100 g/ha) 3 DP.

Read-outs that look alike come from different tables or passages of the source. Some results are limits rather than exact numbers.

Take `CC(C)C(O)(c1cncnc1)c1ccc(Oc2ccc(Cl)cn2)cn1` (centres unmarked) [Compound 13]: the pest or weed control at 100 g/ha lay in the range of 40 to 59% in experiment [1] (setting [4]), 60 to 79% in experiment [1] (setting [5]), 60 to 79% in experiment [3] (setting [8]) and 80 to 100% in experiment [3] (setting [9]). In addition, the pest or weed control at 50 ppm in experiment [2] (setting [6]) and in experiment [2] (setting [7]) was 80 to 100% in each case.
As for `Cc1cc(-c2ccc(C(O)(c3cncnc3)C(C)(C)C)nc2)ccc1OC(F)(F)F` (centres unmarked) [Compound 116], the pest or weed control at 100 g/ha in experiment [1] (setting [4]) is 80 to 100%; in experiment [1] (setting [5]), 60 to 79%; in experiment [3] (setting [8]) it was 80 to 100%; in experiment [3] (setting [9]) it was 80 to 100%. Besides, in experiment [2] (setting [6]), the pest or weed control at 50 ppm fell in the range of 60 to 79%.
Turning to `OC(Cc1cncnc1)(c1ccc(-c2ccc(Cl)cc2)cn1)C1CC1` (centres unmarked) [Compound 39], the pest or weed control at 100 g/ha lay within 60 to 79% in experiment [1] (setting [4]), 40 to 59% in experiment [1] (setting [5]), 80 to 100% in experiment [3] (setting [8]) and 80 to 100% in experiment [3] (setting [9]). In addition, the pest or weed control at 50 ppm in experiment [2] (setting [6]) and in experiment [2] (setting [7]) was 80 to 100% in each case.
As to `CC(C)(C)C(O)(c1cccnc1)c1ccc(-c2ccc(OC(F)F)cc2)cn1` (centres unmarked) [Compound 82], the pest or weed control at 100 g/ha in experiment [1] (setting [4]), in experiment [1] (setting [5]), in experiment [3] (setting [8]) and in experiment [3] (setting [9]) was 80 to 100% each time. Also, the pest or weed control at 50 ppm in experiment [2] (setting [6]) fell in the range of 80 to 100%.
Regarding `OC(Cc1ccc(Cl)cc1F)(c1cccnc1)c1ccc(-c2ccc(OC(F)(F)F)cc2)cn1` (centres unmarked) [Compound 90], the pest or weed control at 100 g/ha in experiment [1] (setting [4]), in experiment [1] (setting [5]), in experiment [3] (setting [8]) and in experiment [3] (setting [9]) was 80 to 100% in each case. In experiment [2] (setting [6]), the pest or weed control at 50 ppm lay within 80 to 100%.
As to `CC(C)(C)C(O)(c1cncnc1)c1ccc(-c2ccc(OC(F)(F)F)c(F)c2)cn1` (centres unmarked) [Compound 106], the pest or weed control at 100 g/ha in experiment [1] (setting [4]), in experiment [1] (setting [5]), in experiment [3] (setting [8]) and in experiment [3] (setting [9]) was 80 to 100% each time. The pest or weed control at 50 ppm in experiment [2] (setting [6]) was 80 to 100%.
`OC(c1cccnc1)(c1ccc(-c2ccc(OC(F)(F)F)cc2)cn1)C1CC1` (centres unmarked) [Compound 78]: the pest or weed control at 100 g/ha lay within 60 to 79% in experiment [1] (setting [4]), 60 to 79% in experiment [1] (setting [5]), 80 to 100% in experiment [3] (setting [8]) and 80 to 100% in experiment [3] (setting [9]). Also, in experiment [2] (setting [6]), the pest or weed control at 50 ppm fell in the range of 80 to 100%.
Take `CC(C)(C)C(O)(c1cncnc1)c1ccc(-c2ccc(C#N)cc2)cn1` (centres unmarked) [Compound 88]: the pest or weed control at 100 g/ha in experiment [1] (setting [4]), in experiment [1] (setting [5]), in experiment [3] (setting [8]) and in experiment [3] (setting [9]) was 80 to 100% in each case. Also, in experiment [2] (setting [6]), the pest or weed control at 50 ppm was in the range of 80 to 100%.
Regarding `CC(C)(C)C(O)(c1cncnc1)c1ccc(-c2ccc(C(F)(F)F)nc2)cn1` (centres unmarked) [Compound 107], the pest or weed control at 100 g/ha was 80 to 100% in experiment [1] (setting [4]), 60 to 79% in experiment [1] (setting [5]), 80 to 100% in experiment [3] (setting [8]) and 60 to 79% in experiment [3] (setting [9]). Besides, in experiment [2] (setting [6]), the pest or weed control at 50 ppm is 80 to 100%.
For the compound `CC(C)(C)C(O)(c1ccc(-c2ccc(OC(F)F)cc2)cn1)c1cncs1` (centres unmarked) [Compound 86], the pest or weed control at 100 g/ha in experiment [1] (setting [4]), in experiment [1] (setting [5]), in experiment [3] (setting [8]) and in experiment [3] (setting [9]) was 80 to 100% each time. Also, in experiment [2] (setting [6]), the pest or weed control at 50 ppm lay in the range of 60 to 79%.
Take `CC(C)(C)C(O)(c1cncnc1)c1ccc(-c2ccc(OC(F)(F)F)cc2F)cn1` (centres unmarked) [Compound 124, 1-(5-(2-fluoro-4-(trifluoromethoxy)phenyl)pyridin-2-yl)-2,2-dimethyl-1-(pyrimidin-5-yl)propan-1-ol]: the pest or weed control at 100 g/ha in experiment [1] (setting [4]), in experiment [1] (setting [5]), in experiment [3] (setting [8]) and in experiment [3] (setting [9]) was 80 to 100% throughout. The pest or weed control at 50 ppm in experiment [2] (setting [6]) is 80 to 100%.
For the compound `CC(C)(C)C(O)(Cc1cncnc1)c1ccc(-c2ccc(OC(F)(F)F)cc2)cn1` (centres unmarked) [Compound 74], the pest or weed control at 100 g/ha is 40 to 59% in experiment [1] (setting [4]), under 40% in experiment [1] (setting [5]), 80 to 100% in experiment [3] (setting [8]) and 80 to 100% in experiment [3] (setting [9]). Moreover, the pest or weed control at 50 ppm in experiment [2] (setting [6]) was 80 to 100%.
`CC(C)(C)C(O)(c1cncnc1)c1ccc(-c2ccc(OCC(F)(F)F)cc2)cn1` (centres unmarked) [Compound 120]: the pest or weed control at 100 g/ha in experiment [1] (setting [4]) fell in the range of 80 to 100%; in experiment [1] (setting [5]), 60 to 79%; in experiment [3] (setting [8]) it was 80 to 100%; in experiment [3] (setting [9]), 80 to 100%. Further, in experiment [2] (setting [6]), the pest or weed control at 50 ppm lay in the range of 80 to 100%.
As for `CC(C)(C)C(O)(c1cncnc1)c1ccc(-c2ccc(SC(F)(F)F)cc2)cn1` (centres unmarked) [Compound 125], the pest or weed control at 100 g/ha in experiment [1] (setting [4]) was in the range of 80 to 100%; in experiment [1] (setting [5]), 60 to 79%; in experiment [3] (setting [8]) it was 80 to 100%; in experiment [3] (setting [9]), 80 to 100%. Besides, the pest or weed control at 50 ppm in experiment [2] (setting [6]) was 80 to 100%.
In the case of `CC(C)(C)c1ccc(-c2ccc(C(O)(c3cccnc3)C(C)(C)C)nc2)cc1` (centres unmarked) [Compound 143], the pest or weed control at 100 g/ha in experiment [1] (setting [4]) was 80 to 100%; in experiment [1] (setting [5]) it was 80 to 100%; in experiment [3] (setting [8]), 80 to 100%; in experiment [3] (setting [9]), 60 to 79%. Further, in experiment [2] (setting [6]), the pest or weed control at 50 ppm lay within 80 to 100%.
In the case of `CC(C)C(O)(c1cncnc1)c1ccc(Oc2ccc(C(F)(F)F)cc2)cn1` (centres unmarked) [Compound 3, 2-methyl-1-(pyrimidin-5-yl)-1-(5-(4-(trifluoromethyl)-phenoxy)pyridin-2-yl)propan-1-ol], the pest or weed control at 100 g/ha is 60 to 79% in experiment [1] (setting [4]), 40 to 59% in experiment [1] (setting [5]), 80 to 100% in experiment [3] (setting [8]) and 80 to 100% in experiment [3] (setting [9]). Moreover, the pest or weed control at 50 ppm in experiment [2] (setting [7]) fell in the range of 80 to 100%. The “Disease Control, SI SEPTTR Type A Assay (50 ppm) 1 DP” value in experiment [2] (1 Day Protectant) is “D (<40)”.
On to `CCC(C)(C)C(O)(Cc1cncnc1)c1ccc(-c2ccc(Cl)cc2)cn1` (centres unmarked) [Compound 57], for which the pest or weed control at 100 g/ha was under 40% in experiment [1] (setting [4]), under 40% in experiment [1] (setting [5]), 80 to 100% in experiment [3] (setting [8]) and 80 to 100% in experiment [3] (setting [9]). Further, the pest or weed control at 50 ppm in experiment [2] (setting [6]) and in experiment [2] (setting [7]) was 80 to 100% throughout.
Turning to `Cc1ncncc1C(O)(c1ccc(-c2ccc(OC(F)(F)F)cc2)cn1)C(C)(C)C` (centres unmarked) [Compound 118], the pest or weed control at 100 g/ha in experiment [1] (setting [4]), in experiment [1] (setting [5]), in experiment [3] (setting [8]) and in experiment [3] (setting [9]) was 80 to 100% each time. Also, the pest or weed control at 50 ppm in experiment [2] (setting [6]) was in the range of 80 to 100%.
As for `CC(C)(C)C(O)(c1cccnc1)c1ccc(-c2ccc(OCC(F)(F)F)cc2)cn1` (centres unmarked) [Compound 92], the pest or weed control at 100 g/ha in experiment [1] (setting [4]), in experiment [1] (setting [5]), in experiment [3] (setting [8]) and in experiment [3] (setting [9]) was 80 to 100% in each case. Also, the pest or weed control at 50 ppm in experiment [2] (setting [6]) was in the range of 80 to 100%.
`CC(=O)c1ccc(-c2ccc(C(O)(c3cncnc3)C(C)(C)C)nc2)cc1` (centres unmarked) [Compound 101]: the pest or weed control at 100 g/ha in experiment [1] (setting [4]), in experiment [1] (setting [5]), in experiment [3] (setting [8]) and in experiment [3] (setting [9]) was 80 to 100% in each case. In addition, the pest or weed control at 50 ppm in experiment [2] (setting [6]) lay within 80 to 100%.
On to `OC(c1cncnc1)(c1ccc(-c2ccc(OC(F)F)cc2)cn1)C1CC1` (centres unmarked) [Compound 60], for which the pest or weed control at 100 g/ha was under 40% in experiment [1] (setting [4]), 60 to 79% in experiment [1] (setting [5]), 80 to 100% in experiment [3] (setting [8]) and 80 to 100% in experiment [3] (setting [9]). Moreover, the pest or weed control at 50 ppm in experiment [2] (setting [6]) and in experiment [2] (setting [7]) was 80 to 100% throughout.
